The values below come from publication PMC6943423, “Structure-Activity Study of an All-D Antimicrobial Octapeptide D2D” (Molecules, 2019).

One data set deals with human red blood cells. Put plainly: Hemolytic activity. Format: cell-based. The conditions noted are these: red cells of human, 1 h, 150. The procedure: The percentage of hemolysis at 150 μM was determined for all compounds as previously described. Briefly, two-fold serial dilutions (2.35 to 150 μM) of compounds in PBS were mixed with a 0.5% v/v suspension of fresh human red blood cells (RBC) in the same buffer. After 1 h incubation at 37 °C, plates were centrifuged and aliquots of the supernatants were transferred to clear ELISA plates. Absorbance at 414 nm was determined and normalised with respect to a negative (PBS, 0%) and positive (melittin, 100%) control.

The nature of data set [1]: Peptide self-assembly nanostructure in solution by SAXS. On cross section of the nanotubes: values in Å. Format: physicochemical. The following applies: for nanostructure in solution (self-assembly, SAXS model): lab SAXS, 50 mM Tris buffer pH 7.4, 2.5–10 mg/mL, ambient temperature. The procedure:
SAXS experiments of D2D and the alanine-scan (compounds 1–8) were performed using a Bruker NANOSTAR equipped with a microfocus X-ray source (IμS Cu, InCoatec, Germany) and a VÅNTEC-2000 detector. Raw scattering data was calibrated to absolute intensity scale using water as a primary standard and radially averaged in order to obtain the 1D scattered intensity profile as a function of the scattering vector q (q = 4 π sin (θ/2)/λ), where θ is the scattering angle and λ is the X-ray wavelength of 1.54 Å. The samples were dissolved in 50 mM Tris buffer, pH 7.4 (10 mg/mL, 5 mg/mL and 2.5 mg/mL) and injected manually into a temperature-controlled quartz cell located in a vacuum chamber and measured for 180 min.
The scattering of the peptide D2D was analysed using a random polymer-like chain model:(1) Ichain(q)=ϕ·Vp·Δρ^2·Pchain(q) where ϕ is the volume fraction of the peptide, Vp is the volume of the polymer, Δρ is the excess scattering length density and Pchain(q) is the form factor of the free peptide chains given by the Debye expression for Gaussian chains:(2) gPchain(q)=2·exp[−(qRg)^2]−1+(qRg)^2/(qRg)^4 where Rg is the radius gyration of the peptide chains.
The scattering for compounds 2 and 7 was analysed using a rectangular sheet like model:(3) Isheet(q)=ϕ·Vp·Δρ^2·Np·Psheet(q)
Under the assumption that the length of the peptide sheets are much greater than the lateral dimension, i.e., c >> a, b, the form factor Psheet(q) is given by (4) Psheet(q)=Fc(q)1/2π∫02πAsheet(q, α)^2dα where the amplitude is given by (5) Asheet(q,α)=sin(qb cos(α)/2)/qb cos(α)/2· sin(qa sin(α)/2) /qa sin(α)/2) and (6) Fc(q)=(2 Si(qc)/(qc)−4 sin^2(qc/2)/(qc)^2 where Si(x)=∫0xt^−1sint dt .
The expression for the absolute scattering intensity, from this structure can be written as:(7) Inanotube(q)=ϕ·P·Vtot·Δρ^2·P(q)L·A(q)cs2·DW(q) where ϕ is the volume fraction of the peptide, P is the aggregation number given by P π(Ro2−Ri2)L/Vp where Vp is the volume of a peptide chain, Ro is the outer radius and Ri is the inner radius of the tubes, and L is the length. A(q)cs2 is given by:(8) A(q)cs2=Ro2A(q,Rc)−Rin2A(q,Ri)/(Ro2−Ri2) where A(q,x)=2J1(q·x)/(q·x) and J1(x) is the first order Bessel function.
The longitudinal form factor P(q)L is given by:(9) P(q)L=2 Si(QL)/QL −4 sin(sin^2(QL/2)/(QL)^2 where L is the length of the nanotubes and Si(x) is the Sine-function.
In addition, we introduced a slight distribution in the inner radius for possible shape fluctuations, and a Debye Waller factor, DW(q) = exp(−q^2 σ^2), describing possible surface roughness of the inner and outer wall.

Square brackets hold non-standard residues; d marks the D form. Peptide text beside a SMILES is read from it. d1Nal = N[C@H](Cc1cccc2ccccc12)C(=O)O; dNle = CCCC[C@@H](N)C(=O)O

In the case of `CCCC[C@@H](NC(=O)[C@@H](CCCCN)NC(=O)[C@@H](Cc1cccc2ccccc12)NC(=O)[C@@H](CCCCN)NC(=O)[C@@H](Cc1ccccc1)NC(=O)[C@@H](Cc1cccc2ccccc12)NC(=O)[C@@H](CCCCN)NC(=O)[C@@H](C)N)C(N)=O` [Compound 1, ak(1-nal)fk(1-nal)k(nle)-NH2] (H-[dA][dK][d1Nal][dF][dK][d1Nal][dK][dNle]-NH2), the “%H (% Hemolysis at 150 µM)” value in the data set on human red blood cells was 41%. In data set [1], the “nanostructure in solution (self-assembly, SAXS model)” value (from here on “nanostructure in solution”) is recorded as “random polymer-like chains”.
Regarding `CCCC[C@@H](NC(=O)[C@@H](CCCCN)NC(=O)[C@@H](Cc1cccc2ccccc12)NC(=O)[C@@H](CCCCN)NC(=O)[C@@H](Cc1ccccc1)NC(=O)[C@@H](Cc1cccc2ccccc12)NC(=O)[C@@H](C)NC(=O)[C@H](N)CCCCN)C(N)=O` [Compound 2, ka(1-nal)fk(1-nal)k(nle)-NH2] (H-[dK][dA][d1Nal][dF][dK][d1Nal][dK][dNle]-NH2), the “%H (% Hemolysis at 150 µM)” value with human red blood cells stood at 59%. In addition, in data set [1] (SAXS nanotube model fit, 50 mM Tris pH 7.4), the “cross section of the nanotubes” value is recorded as 14 Å. In data set [1], the “nanostructure in solution” value was “larger filament like structures”.
As to `CCCC[C@@H](NC(=O)[C@@H](CCCCN)NC(=O)[C@@H](Cc1cccc2ccccc12)NC(=O)[C@@H](CCCCN)NC(=O)[C@@H](Cc1ccccc1)NC(=O)[C@@H](C)NC(=O)[C@@H](CCCCN)NC(=O)[C@H](N)CCCCN)C(N)=O` [Compound 3, kkafk(1-nal)k(nle)-NH2] (HELM PEPTIDE1{[dK].[dK].[dA].[dF].[dK].[O=C([C@@H](Cc1cccc2ccccc12)N[*:1])[*:2]].[dK].[CCCC[C@@H](N[*:1])C(=O)[*:2]].[am]}$$$$V2.0), in the data set with human red blood cells, the “%H (% Hemolysis at 150 µM)” value is listed as 2%. The “nanostructure in solution” value in data set [1] was “random polymer-like chains”.
Taken in the same sequence, the figures for `CCCC[C@@H](NC(=O)[C@@H](CCCCN)NC(=O)[C@@H](Cc1cccc2ccccc12)NC(=O)[C@@H](CCCCN)NC(=O)[C@@H](C)NC(=O)[C@@H](Cc1cccc2ccccc12)NC(=O)[C@@H](CCCCN)NC(=O)[C@H](N)CCCCN)C(N)=O` [Compound 4, kk(1-nal)ak(1-nal)k(nle)-NH2] (H-[dK][dK][d1Nal][dA][dK][d1Nal][dK][dNle]-NH2; N-terminus assumed) were 22% and “random polymer-like chains”.
For `CCCC[C@@H](NC(=O)[C@@H](CCCCN)NC(=O)[C@@H](C)NC(=O)[C@@H](CCCCN)NC(=O)[C@@H](Cc1ccccc1)NC(=O)[C@@H](Cc1cccc2ccccc12)NC(=O)[C@@H](CCCCN)NC(=O)[C@H](N)CCCCN)C(N)=O` [Compound 6, kk(1-nal)fkak(nle)-NH2] (HELM PEPTIDE1{[dK].[dK].[O=C([C@@H](Cc1cccc2ccccc12)N[*:1])[*:2]].[dF].[dK].[dA].[dK].[CCCC[C@@H](N[*:1])C(=O)[*:2]].[am]}$$$$V2.0; N-terminus assumed) the same measures were 10% and “random polymer-like chains”.
For `CCCC[C@@H](NC(=O)[C@@H](C)NC(=O)[C@@H](Cc1cccc2ccccc12)NC(=O)[C@@H](CCCCN)NC(=O)[C@@H](Cc1ccccc1)NC(=O)[C@@H](Cc1cccc2ccccc12)NC(=O)[C@@H](CCCCN)NC(=O)[C@H](N)CCCCN)C(N)=O` [Compound 7, kk(1-nal)fk(1-nal)a(nle)-NH2] (H-[dK][dK][d1Nal][dF][dK][d1Nal][dA][dNle]-NH2), the “%H (% Hemolysis at 150 µM)” value in the data set with human red blood cells is on record as 67%. In data set [1], the “nanostructure in solution” value was “larger filament like structures”.
For `C[C@@H](NC(=O)[C@@H](CCCCN)NC(=O)[C@@H](Cc1cccc2ccccc12)NC(=O)[C@@H](CCCCN)NC(=O)[C@@H](Cc1ccccc1)NC(=O)[C@@H](Cc1cccc2ccccc12)NC(=O)[C@@H](CCCCN)NC(=O)[C@H](N)CCCCN)C(N)=O` [Compound 8, kk(1-nal)fk(1-nal)ka-NH2] (HELM PEPTIDE1{[dK].[dK].[O=C([C@@H](Cc1cccc2ccccc12)N[*:1])[*:2]].[dF].[dK].[O=C([C@@H](Cc1cccc2ccccc12)N[*:1])[*:2]].[dK].[dA].[am]}$$$$V2.0; N-terminus assumed) the same measures were 5% and “random polymer-like chains”.
